“Also recorded” adds a separate entry of the source. Like-named read-outs stand apart in the source and are kept apart here. Square brackets hold non-standard residues; d marks the D form. Ends that are not written are not given here. * marks the point of attachment. Biotin = O=C1N[C@H]2[C@H](CS[C@H]2CCCCC(=O)*)N1; Ahx = NCCCCCC(=O)O
B1: TNP-OVA: non-related protein antigen (OVA) coupled to the hapten TNP (trinitrophenyl group) (conjugate, UniProt P01012 2-386, looked up)
Ovalbumin: GSIGAASMEFCFDVFKELKVHHANENIFYCPIAIMSALAMVYLGAKDSTRTQINKVVRFDKLPGFGDSIEAQCGTSVNVHSSLRDILNQITKPNDVYSFSLASRLYAEERYPILPEYLQCVKELYRGGLEPINFQTAADQARELINSWVESQTNGIIRNVLQPSSVDSQTAMVLVNAIVFKGLWEKAFKDEDTQAMPFRVTEQESKPVQMMYQIGLFRVASMASEKMKILELPFASGTMSMLVLLPDEVSGLEQLESIINFEKLTEWTSSNVMEERKIKVYLPRMKMEEKYNLTSVLMAMGITDVFSSSANLSGISSAESLKISQAVHAAHAEINEAGREVVGSAEAGVDAASVSEEFRADHPFLFCIKHIATNAVLFFGRCVSP
modifications: trinitrophenyl hapten conjugate

Columns and labels:
[1] = tested on: antibodies in TETAQUIN® (anti-TTd antibodies); format: binding, human
[2] = tested on: antibodies in individual human sera (e.g. serum 034960); assay: Tettox ELISA of biotinylated peptides on individual human sera; format: binding; details: for ELISA OD SERUM 034960: human serum 034960 diluted 100x
Protocol: a 96-wells plate (preferably from Euro-Diagnostica, Arnhem, The Netherlands) is coated with streptavidin. The streptavidin coated 96 wells plate is blocked with PBS containing 5% BSA (200 μl/well, 1 h, room temperature). Subsequently, the plate is washed three times with PBS containing 0.05% TWEEN20® (polysorbate 20). A biotinylated peptide is coated by 1 h incubation at room temperature with 100 μl/well of a 2 μg/ml solution of the biotinylated peptide in PBS containing 1% BSA. The plate is washed three times with PBS containing 0.05% TWEEN20® (polysorbate 20) followed by incubation for 1 h at room temperature with 100 μl serum from […] a human subject as defined above (preferably having a high titer of anti-TTd antibodies) that had been diluted at least 100, 200, 400, 500 or 1000 times and preferably not more than 100,000, 10,000, 7,500, 5,000 or 2,500 times with PBS containing 1% BSA. Then the plate is washed three times with PBS containing 0.05% TWEEN20®(polysorbate 20). Each well is incubated for 1 h at room temperature with a HRP-conjugated IgG antibody (mouse anti-human IgG-HRP monoclonal, clone G18-145, cat no 555788, Becton Dickinson, 100 μl/well of a 1000× dilution in PBS containing 0.05% TWEEN20® (polysorbate 20)) after which the plate is washed three times with PBS containing 0.05% TWEEN20® (polysorbate 20). Development is performed with 2,2′-azino-di-(3-ethylbenzthiazoline sulfonic acid), ABTS+H2O2 1/1000, 100 μl/well. Optical density is measured at 415 nm with a BIO-RAD, model 680, microplate reader. In each plate, preferably a negative contol is included, more preferably at least in triplicate. A preferred negative contol is serum from a human subject without detectable anti-TTd antibodies. Another preferred negative control is a solution of BSA. A peptide according to (ii) above is a peptide according to the invention if it is bound by antibodies in at least 40, 45, 50, 55, 60, 65, 70, 75, 80, 85, 87, 90, 91, 92, 93, 94, 95, 96, 97, 98, 99% most preferably 100% of the tested human serum samples. A peptide is considered to be bound by antibodies in a serum sample if the determined optical density for that particular serum sample is at least 2.0, more preferably 2.5, 3.0, 3.5 or more times higher as compared to the optical density that is determined for the negative control.
Streptavidin coated 96 wells plates (Euro-Diagnostica) were blocked with PBS containing 5% BSA (200 μl/well, 1 h, room temperature). Plates were washed three times with PBS containing 0.05% TWEEN20® (polysorbate 20). Coating of the biotinylated peptides was performed by 1 h incubation at room temperature with 100 μl/well of a 2 μg/ml solution of the biotinylated peptide in PBS containing 1% BSA. Plates were washed three times with PBS containing 0.05% TWEEN20®. Wells were incubated for 1 h at room temperature with either 100 μl TETAQUIN® […] that had been diluted 800× with PBS containing 1% BSA or with 100 μl human serum that had been diluted 100× with PBS containing 1% BSA. Plates were washed three times with PBS containing 0.05% TWEEN20® (polysorbate 20). Each well was incubated for 1 h at room temperature with a HRP-conjugated IgG antibody (mouse anti-human IgG-HRP monoclonal, clone G18-145, cat no 555788, Becton Dickinson, 100 μl/well of a 1000× dilution in PBS containing 0.05% TWEEN20® (polysorbate 20)). Plates were washed three times with PBS containing 0.05% TWEEN20® (polysorbate 20). Development was performed with 2,2′-azino-di-(3-ethylbenzthiazoline sulfonic acid), ABTS+H2O2 1/1000, 100 μl/well. Optical density was measured at 415 nm with a BIO-RAD, model 680, microplate reader.
Thereafter, the inventors tested these 7 peptides on individual sera, because an epitope is needed to which every person makes antibodies.

OVA-specific CD8 T cells = assay: Systemic antigen-specific T cell priming in TNP-BSA immunized mice challenged with TNP-OVA; format: in vivo
Protocol: Mice were repeatedly immunized with TNP-BSA resulting in high titers of circulating antibodies against the hapten TNP (TNP immunized) or left non-immunized (naïve).
After 1-2 months all mice were injected with naïve OVA-specific CD8 T cells which were labelled with the fluorescent dye CFSE. After 24 hrs the mice were injected with a single dose of TNP-OVA. 3 days later the mice were sacrificed and OVA-specific proliferation of the labelled T cells was analysed in spleen and lymph nodes by flow cytometry (FIGS. 2a and 2b). The symbols represent individual mice. […] Thus, systemic antigen-specific T cell priming can be facilitated by pre-existing circulating antibodies against hapten-epitopes.

[3] = Table 6, conservative substitutions scan of […]

Molecule | ELISA OD TETAQUIN ([1]; Table 5, Ala scan of […]) | ELISA OD SERUM 034960 ([2]; Table 5, Ala scan of […]) | ELISA OD TETAQUIN [1, 3] | ELISA OD SERUM 034960 [2, 3] | also measured
F I G I T E L K K L E S K I N K A F Z O (FIGITELKKLESKINKAF[Ahx]K; not fully specified (residue 20)) [0942-26] | 1.24 | 1.39 |  |  | 
QYIKANSKFIGITELKKLESKIZO [β32] |  |  |  |  | binding to TETAQUIN (screen of overlapping 22-mer TTx peptides) ([1]; FIG. 3 (α-chain), FIG. 4 (β-chain)): good binding; also recorded: antibodies present; OD ([1]; Table 2, length variants of peptide β-32, section 'With linker', […] diluted 800x, OD at 415 nm): 1.3; OD ([1]; Table 2, length variants of peptide β-32, section 'Without linker' (sequence listed without Z O), […]): 1.3; ELISA OD, effect of longer spacer and C- versus N-terminal biotinylation ([1]; Table 4, antibody source not given): 1.16; antibodies against the peptide in individual donor sera ([2]; 14 individual sera, FIGS. 5a-5n): All donors have antibodies
F I G I T E L K K L E S K I N K V F Z O [0942-09] | 1.26 | 1.36 | 1.26 | 1.36 | OD ([1]; Table 3, further length variants and Lys(formyl) variants, […], neg. control OD 0.30): 2.30
F I G I T A L K K L E S K I N K V F Z O [0942-15] | 1.24 | 1.28 |  |  | 
F I G I A E L K K L E S K I N K V F Z O [0942-14] | 0.38 | 0.16 |  |  | 
F I G I S E L K K L E S K I N K V F Z O [0942-32] |  |  | 0.83 | 0.70 | 
F I G A T E L K K L E S K I N K V F Z O [0942-13] | 0.30 | 0.18 |  |  | 
F I G I T E L K K L A S K I N K V F Z O (FIGITELKKLASKINKVF[Ahx]K; not fully specified (residue 20)) [0942-20] | 0.85 | 0.91 |  |  | 
F I G I T E L K K L E A K I N K V F Z O (FIGITELKKLEAKINKVF[Ahx]K; not fully specified (residue 20)) [0942-21] | 1.27 | 1.48 |  |  | 
F I G I T E L K K L E S K L N K V F Z O (FIGITELKKLESKLNKVF[Ahx]K(Biotin)) [0942-41] |  |  | 1.11 | 1.32 | 
F I G I T E A K K L E S K I N K V F Z O [0942-16] | 0.90 | 0.91 |  |  | 
F I G L T E L K K L E S K I N K V F Z O (FIGLTELKKLESKINKVF[Ahx]K(Biotin)) [0942-31] |  |  | 0.97 | 1.19 | 
F I G I T E L K K L E S K I Q K V F Z O (FIGITELKKLESKIQKVF[Ahx]K(Biotin)) [0942-42] |  |  | 1.41 | 1.26 | 
F I G I T E L K K L E S K I N K V A Z O (FIGITELKKLESKINKVA[Ahx]K; not fully specified (residue 20)) [0942-27] | 1.26 | 1.20 |  |  | 
F I G I T E L K K L E S A I N K V F Z O (FIGITELKKLESAINKVF[Ahx]K; not fully specified (residue 20)) [0942-22] | 1.10 | 1.27 |  |  | 
B1 |  |  |  |  | OVA-specific proliferation of CFSE labelled T cells in spleen and lymph nodes (OVA-specific CD8 T cells; TNP immunized mice vs other groups, single dose TNP-OVA, analysed 3 days later by flow cytometry, P<0.001): significantly different; T cell responses against OVA (OVA-specific CD8 T cells; TNP-BSA immunized mice compared to control mice vaccinated with BSA without TNP): much higher level
